The results in this text go back to US11279768B1, “Anti-cancer antibodies, combination therapies, and uses thereof” (PRECISION BIOLOGICS, INC., priority 2015, dated 2022).

Assay [1] deals with colon cancer samples. As to the kind of experiment: Immunohistochemistry, cancer tissue microarray, colon. It counts as binding. From the text:
(§1) FIG. 2. Immunohistochemistry results from cancer tissue arrays. Immunohistochemistry method (IHC) was used for determining the presence of NEO-101/102, NEO-201 and NEO-301 antigens on paraffin microarrays and tissues. These primary antibodies (NEO-101/NEO-102, NEO-201 and NEO-301) were biotinylated prior to use. Paraffin tissue Microarrays and slides of tissues were reacted with the primary Ab after inactivating endogenous peroxidase and blocking the slides. Staining was detected with streptavidin-horseradish peroxidase conjugate and visualized with chromogen. Biotinylated human IgG1 was used as negative control and mouse anti-human cytokeratin monoclonal antibody was used as positive control. Antibody staining is measured as % and intensity of tumor epithelial cells and luminal secretion within the whole tissue section.
(§2) Immunohistochemistry (IHC) was used for determining the presence of NEO-101/102, NEO-201 and NEO-301 antigens on paraffin microarrays and tissues. These primary antibodies (NEO-101/NEO-102, NEO-201 and NEO-301) were biotinylated prior to use. […] Staining was detected with streptavidin-horseradish peroxidase conjugate and visualized with chromogen. […] Antibody staining was measured as % and intensity of tumor epithelial cells and luminal secretion within the whole tissue section. […]

In assay [2] the test system is pancreatic cancer samples. Description: Immunohistochemistry, paraffin tissue sections, pancreas. It counts as binding.
From the text: as §1, §2

The subject of assay [3] is pancreatic cancer samples. Description: Immunohistochemistry, cancer tissue microarray, pancreas. Format: binding.
From the text: as §1, §2

The subject of assay [4] is lung adenocarcinoma cells. As to the kind of experiment: Antigen expression by Flow Cytometry, lung adenocarcinoma cell lines. To be noted: multiple lung adenocarcinoma cell lines; primary antibody 10 ug/mL. It counts as binding, Human. The procedure: (§3) FIG. 1. NEO-101, NEO-201 and NEO-301 Antigen Expression by Human Normal and Cancer Cell Lines. NEO-101, NEO-201 and NEO-301 specific antigen expression in various cell lines were detected by Flow Cytometry. Viable cell suspensions were incubated with primary antibody NEO-101, NEO-201 and NEO-301 separately at 10 ug/mL. Human IgG (10 ug/mL) was used as negative control. Goat anti-human IgG (Fc)-phycoerythrin conjugate was used for primary antibody detection; 7-ADD was used for excluding dead cells from analysis. The staining was measured by Flow Cytometry (Guava instrument, Millipore). Median fluorescent intensity (MFI) and % of stained cells was used for determining presence of specific antigen on each cell line.
(§4) Antigen expression in cell lines of various origins were detected by Flow Cytometry. Viable cell suspensions were incubated with primary antibody NEO-101, NEO-201 and NEO-301 separately at 10 ug/mL. Human IgG (10 ug/mL) was used as negative control. Goat anti-human IgG (Fc)-phycoerythrin conjugate was used for primary antibody detection; 7-ADD was used for excluding dead cells from analysis. The staining was measured by Flow Cytometry (Guava instrument, Millipore). Median fluorescent intensity (MFI) and % of stained cells was used for determining presence of specific antigen on each cell line. […]
A general note: Flow cytometry measures light scatter and fluorescence of single cells or particles in a stream.

Assay [5] has as its system pancreatic adenocarcinoma cells. As to the kind of experiment: Antigen expression by Flow Cytometry, pancreatic adenocarcinoma cell lines. Conditions: primary antibody 10 ug/mL. Format: binding, Human. The procedure:
as §3, §4

Assay [6] relates to colon cancer samples. Description: Immunohistochemistry, paraffin tissue sections, colon. Format: binding.
From the text: as §1, §2

Assay [7] relates to lung cancer samples. Description: Immunohistochemistry, paraffin tissue sections, lung. Format: binding.
From the text: as §1, §2

Assay [8] relates to lung squamous carcinoma cells. Description: Antigen expression by Flow Cytometry, lung squamous cell carcinoma cell lines. It counts as binding, Human. Conditions: multiple lung squamous cell carcinoma cell lines; primary antibody 10 ug/mL. The procedure: as §3, §4
Assay [9] has as its system colorectal adenocarcinoma cells. Description: Antigen expression by Flow Cytometry, colorectal adenocarcinoma cell lines. It counts as binding, Human. To be noted: multiple colorectal adenocarcinoma cell lines; primary antibody 10 ug/mL. The procedure: as §3, §4
The subject of the next assay is skin cancer samples. Description: Immunohistochemistry, cancer tissue microarray, skin. Format: binding.
From the text: as §1, §2

In assay [10] the test system is lung cancer samples. Description: Immunohistochemistry, cancer tissue microarray, lung. Format: binding.
From the text: as §1, §2

The test system of a further assay is uterus cancer samples. As to the kind of experiment: Immunohistochemistry, cancer tissue microarray, uterus. It counts as binding.
From the text: as §1, §2

The test system of a further assay is stomach cancer samples. Description: Immunohistochemistry, cancer tissue microarray, stomach. It counts as binding.
From the text: as §1, §2

Turning to “NEO-201: Humanized 16C3 antibody; binds epitopes in CEACAM5 and CEACAM6”, the “cancer samples positive for the antigen (IHC)” value (“cancer samples positive” below) with colon cancer samples [1] turned out to be 85%; in [2], 83%; in [3], 86%; in the assay with colon cancer samples [6], 94%; in the assay with lung cancer samples [7], 90%; with skin cancer samples, 16%. Also, the “cancer samples positive” value with lung cancer samples [10] is 61%; in the assay with uterus cancer samples it was 51%. Besides, the “antigen expression detected by Flow Cytometry” value in assay [4], in assay [5], in assay [8] and in assay [9] was “detected” each time.

B1: NEO-101: Chimeric NPC-1 antibody, engineered in CHO-DG44 production cell clone 4B7; targets a variant of MUC5AC (protein)
light: MDFQVQIFSFLLISASVILSRGQVVLTQSPVIMSASPGEKVTMTCSASSSISYMYWYQQKPGTSPKRWIYDTSKLASGVPARFSGSGSGTSYSLTISNMEAGDAATYYCHQRDSYPWTFGGGTNLEIKRADAAPTVSIFPPSSEQLTSGGASVVCFLNNFYPKDINVKWKIDGSERQNGVLNSWTDQDSKDSTYSMSSTLTLTKDEYERHNSYTCEATHKTSTSPIVKSFNRNEC
heavy: MAVLALLLCLVTFPSCVLSQVQLKESGPDLVAPSQSLSITCTVSGFSLSKFGVNWVRQPPGKGLEWLGVIWGDGSTSYNSGLISRLSISKENSKSQVFLKLNSLQADDTATYYCVKPGGDYWGHGTSVTVSSAKTTPPSVYPLAPGSAAQTNSMVTLGCLVKGYFPEPVTVTWNSGSLSSGVHTFPAVLQSDLYTLSSSVTVPSSTWPSETVTCNVAHPASSTKVDKKIVPRDCGCKPCICTVPEVSSVFIFPPKPKDVLTITLTPKVTCVVVDISKDDPEVQFSWFVDDVEVHTAQTQPREEQFNSTFRSVSELPIMHQDWLNGKEFKCRVNSAAFPAPIEKTISKTKGRPKAPQVYTIPPPKEQMAKDKVSLTCMITDFFPEDITVEWQWNGQPAENYKNTQPIMDTDGSYFVYSKLNVQKSNWEAGNTFTCSVLHEGLHNHHTEKSLSHSPGK
modifications: NPC-1 antibody light chain; (46)..(55) CDR1; (71)..(77) CDR2; (110)..(118) CDR3; NPC-1 antibody heavy chain; (49)..(54) CDR1; (69)..(84) CDR2; (114)..(121) CDR3
notes: Chimeric NPC-1 antibody, engineered in CHO-DG44 production cell clone 4B7; targets a variant of MUC5AC
With B1, the “cancer samples positive” value turned out to be 61% in the assay on colon cancer samples [1]; 82% in [2]; 31% in assay [3]; 87% in the assay with colon cancer samples [6]; 67% in the assay with lung cancer samples [7]; 30% with stomach cancer samples. Also, the “cancer samples positive” value with uterus cancer samples was 41%. For the same molecule, the “antigen expression detected by Flow Cytometry” value in assay [5] and in assay [9] was “detected” each time.
